Entries after “also recorded” stand apart in the source; their conditions may differ.
Tests used:
[1] = test system: S. cerevisiae; test: Two-color cDNA microarray expression profiling of mutant or compound-treated yeast cultures (300-experiment compendium) with hierarchical clustering; assay type: cell-based; conditions: for mutant in the affected pathway whose profile the profile caused by the inhibitory compound resembles / DNA-damage/S-phase arrest inducible RNR2, RNR3 and RNR4 transcripts: FIG. 9B; for clustering of treatment profile with profiles from cell wall related mutants gas1Δ, spf1Δ, and amp1Δ: FIG. 11A
Method: Experimental (mutant or chemically treated) cultures were grown, harvested and processed in parallel with corresponding wild-type or control cultures. A complete list of experimental conditions is provided, below, in Table 2.
Several colonies of similar size were picked from freshly-streaked YAPD agar plates into liquid Synthetic Complete medium (SC) with 2% glucose, grown overnight at 30° C. to mid-log phase, diluted to 0.4-1.0×10^6 cells/mL, and grown an addition 5-7 hours until reaching 0.4-1.0[…], at which point they were pelleted by centrifugation from 2 minutes at room temperature and frozen in liquid nitrogen. The final optical densities of experimental and control cultures were matched as closely as possible. For experiments involving treatments with chemical compounds (including doxycycline), compounds were added at the beginning of the 5-7 hour final groth phase, with equal amounts of solvent or doxycyline added to control cultures as appropriate. Total RNA was prepared by phenol:chloroform extraction followed by ethanol precipitation as described previously (see, e.g., Marton et al., 1998, Nat. Med. 4:1293-1301) except that the step vortexing with glass beads was replaced with a 10 minute incubation at 65° C. followed by 1 minute of vortexing. Poly-A+ RNA purification, cDNA labeling, microarray production, and microarray hybridization and washing were also done as previously described (e.g., in Marton et al., supra) with measurements taken in fluor-reversed pairs. Arrays were scanned, images were quantitated and physical artifacts such as dust and salt residue were edited as described previously (see, e.g., Marton et aL, supra). Resulting data files were evaluated by a series of quality-control criteria relating, first, to the image itself and, second, to known biological artifacts. For purposes of illustrating the impact of biases, experiments flagged as containing biological artifacts were noted by were not excluded from subsequent data analysis steps.
Clustering analysis of the perturbation response profiles was done as described, below, in Section 5.2.4. Specifically, the analysis comprised two steps. First, profiles and transcripts were selected from a data matrix and, second, experiments and responsive genes were grouped by agglomerative hierarchical clustering (see Hartigan, 1975, Clustering Algorithms, John Wiley & Sons, New York) where the similarity measure is the error-weighted correlation coefficient provided in Equation 11 below. Genes and experiments (i.e., columns and rows, respectively, of the data matrix) were then re-ordered according to the resulting clustering similarity trees. A statistical significance (i.e., a P-value) was also calculated for each bifurcation in the resulting cluster tree using the methods for determining statistical significance of cluster groups which are also described, below, in Section 5.2.4.
Using a two-color cDNA microarray hybridization assay (see, Schena et al., 1995, Science 270:467-470), three hundred expression profiles were generated in S. cerevisiae in which transcript levels of a mutant or compound-treated culture were compared to that of a wild-type or mock-treated culture. 276 deletion mutants, 11 tetracycline-regulatable alleles of essential genes (Gari et al., 1997, Yeast 13:837-848) and 13 well-characterized compounds were profile. Sixty-nine of the 276 deletions were of uncharacterized open reading frames (ORFs). To allow direct comparison of the behavior of all genes in response to all mutations and treatments, experiments were performed under a single condition: cells were grown at 30° C. in liquid synthetic complete SC) medium plus 2% glucose to mid-log phase, with the final optical densities of the experimental and control cultures closely matched (see Section 6.1 above). […]

[2] = test system: wild type yeast cells; conditions: levels that give maximal repression of promoter activity (10 micrograms/nil); cited from earlier work
[3] = molecular target: yeast Erg2 enzyme (Saccharomyces cerevisiae, UniProt P32352); conditions: cited from earlier work
Sequence of yeast Erg2 enzyme (P32352 whole entry): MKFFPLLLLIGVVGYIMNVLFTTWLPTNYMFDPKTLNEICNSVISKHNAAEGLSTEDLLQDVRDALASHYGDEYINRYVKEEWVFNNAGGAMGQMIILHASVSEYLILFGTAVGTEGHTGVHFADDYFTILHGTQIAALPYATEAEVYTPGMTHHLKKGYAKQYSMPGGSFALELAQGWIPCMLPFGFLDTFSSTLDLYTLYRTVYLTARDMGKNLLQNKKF

[4] = molecular target: T1, Erg2p, the sterol C-8 isomerase (Saccharomyces cerevisiae, UniProt P32352); test: Sterol profiles by gas chromatography of the nonsaponifiable fraction; assay type: cell-based, yeast; conditions: dyclonine-treated cells, FIG. 11F
T1 construct: endogenous in cells; host or cells: S. cerevisiae, Saccharomyces Genome Deletion Consortium strain background
T1 sequence (P32352 whole entry): as above
Method: Sterols were identified using pure standards and on the basis of relative retention times. Nonsaponifiables were isolated from yeast as previously described (Molzahn and Woods, 1972, J Gen. Microbiol. 72:339-348). Gas chromatography (GC) analyses of the nonsaponifiable fraction were analyzed on a HP5890 series II GC equipped with the HP chemstation software. The capillary column (DB5) was 15 m×0.25 mm i.d., 0.2 μm film thickness and was programmed from 195 fC to 300 fC (195 fC for 3 min., 5.5 fC/min. to 300 fC then held for 10 min.). The linear velocity was 30 cm/s using nitrogen and the carrier gas and all injections were run in the splitless mode.

Q: With `CC[C@H](C)C(=O)O[C@H]1C[C@@H](C)C=C2C=C[C@H](C)[C@H](CC[C@@H]3C[C@@H](O)CC(=O)O3)[C@H]21` [lovastatin] as the molecule, how does the “correlation of transcript profile of compound treatment with profile of reduced expression of the target gene” value ([1]; FIG. 9E) read?
A: correlates highly with the profile produced by reducing expression of HMG2

Q: With `C/C=C1\NC(=O)[C@H]2CSSCC/C=C/[C@H](CC(=O)N[C@H](C(C)C)C(=O)N2)OC(=O)[C@H](C(C)C)NC1=O` [FR901,228] as the molecule, how does the “mutant in the affected pathway whose profile the profile caused by the inhibitory compound resembles” value (from here on “mutant … by the inhibitory compound resembles”) [1] read?
A: rpd3

Q: For `N[C@H]1C(O)O[C@H](CO)[C@@H](O)[C@@H]1O` (stereo partly shown) [glucosamine], which “mutant … by the inhibitory compound resembles” value [1] is on record?
A: gas1

Q: And the “clustering of treatment profile with profiles from cell wall related mutants gas1Δ, spf1Δ, and amp1Δ” value (“clustering of treatment profile … and amp1Δ” below) [1]?
A: form a discrete cluster together with

Q: Which “effect on the growth rate on wild type yeast cells” value [2] does the source give for `C[C@H]1c2cccc(O)c2C(=O)C2=C(O)[C@]3(O)C(=O)C(C(N)=O)=C(O)[C@@H](N(C)C)[C@@H]3[C@@H](O)[C@@H]21` [doxycycline] here?
A: no significant effect

Q: Which “binding and inhibition of the yeast Erg2 enzyme” value [3] does the source give for `O=C(CCCN1CCC(O)(c2ccc(Cl)cc2)CC1)c1ccc(F)cc1` [haloperidol] here?
A: binds and inhibits

Q: For `CCC(C)n1ncn(-c2ccc(N3CCN(c4ccc(OCC5COC(Cn6cncn6)(c6ccc(Cl)cc6Cl)O5)cc4)CC3)cc2)c1=O` (stereo not shown) [itraconzaole], which “mutant … by the inhibitory compound resembles” value [1] is on record?
A: erg/11

Q: With tunicamycin as the molecule, how does the “mutant … by the inhibitory compound resembles” value [1] read?
A: gas1

Q: What about the “clustering of treatment profile … and amp1Δ” value [1] of the same molecule?
A: form a discrete cluster together with

Q: Which “mutant … by the inhibitory compound resembles” value [1] does the source give for `O=CC[C@@H](O)[C@H](O)[C@H](O)CO` [2-deoxy-D-glucose] here?
A: gas1

Q: What about the “clustering of treatment profile … and amp1Δ” value [1] of the same molecule?
A: form a discrete cluster together with

Q: With `C[C@@H]1C[C@@H]([C@H](O)CC2CC(=O)NC(=O)C2)C(=O)[C@@H](C)C1` [cycloheximide] as the molecule, how does the “mutant … by the inhibitory compound resembles” value [1] read?
A: yef3

Q: What about the “clustering of treatment profile with ribosome subunit deletion profiles” value ([1]; all regulations greater than 1.5-fold masked, small regulations used as basis of clustering) of the same molecule?
A: this profile cluster gains additional translation-related experiments

Q: For `CCCCOc1ccc(C(=O)CCN2CCCCC2)cc1` [dyclonine], which “expression profile of drug-treated yeast compared with the compendium profiles” value ([1]; six hour treatment with 0.063% dyclonine (FIG. 11E)) is on record?
A: correlates most closely with the response profile obtained from a cell line in which the erg2p gene has been “knocked out.”; also recorded: most closely resembled profiles resulting from perturbation of the ergosterol pathway

Q: What about the “sterol accumulating in treated cells and enzyme inferred to be inhibited (GC analysis)” value [4] of the same molecule?
A: buildup of fecosterol, indicating inhibition of Erg2p

Q: What about the “sterol content of treated cells (GC analysis)” value [4] of the same molecule?
A: abnormal

Q: Which results are given for `NC(=O)NO` [hydroxyurea]?
A: DNA-damage/S-phase arrest inducible RNR2, RNR3 and RNR4 transcripts [1]: induced; mutant in the affected pathway whose profile the profile caused by the inhibitory compound resembles [1]: rnr1

Q: Which “DNA-damage/S-phase arrest inducible RNR2, RNR3 and RNR4 transcripts” value [1] does the source give for `COS(C)(=O)=O` [MMS] here?
A: induced
